Measured values published in PMC2947314 (Cellular Signalling, 2010).

Target: Sphingosine kinase 1 (SK1) (Homo sapiens, UniProt Q9NYA1)
Assay: […]S1P formation assay, single concentration […]
Type: biochemical
Conditions: read-out: % inhibition at 50 μM

Chain of Sphingosine kinase 1 (SK1) (Q9NYA1 whole entry): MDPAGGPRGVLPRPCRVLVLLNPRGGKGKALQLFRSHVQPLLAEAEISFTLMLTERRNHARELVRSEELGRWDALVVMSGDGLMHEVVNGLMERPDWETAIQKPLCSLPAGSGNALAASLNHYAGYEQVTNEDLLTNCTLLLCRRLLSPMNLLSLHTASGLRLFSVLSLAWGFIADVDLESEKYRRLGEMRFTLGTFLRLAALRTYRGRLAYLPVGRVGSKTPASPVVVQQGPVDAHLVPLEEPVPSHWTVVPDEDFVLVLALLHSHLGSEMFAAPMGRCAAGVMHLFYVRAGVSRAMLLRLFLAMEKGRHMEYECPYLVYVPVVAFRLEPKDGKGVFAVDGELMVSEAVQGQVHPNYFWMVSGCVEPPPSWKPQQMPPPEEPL

inhibition at 50 µM: ~40%
SMILES: CCCCCCCCc1ccc(CCC(N)(CO)CO)cc1 [FTY720]
